The text below walks through data of US9615574B2, “Compositions of dibromomalonamide and their use as biocides” (Dow Global Technologies LLC, priority 2013, dated 2017).

The subject of experiment [1] is Desulfovibrio longus ATCC 51456. In words: MBC of DBMAL, THPS and blends against anaerobic bacteria, 24 hour contact time. Type of experiment: cell-based. The settings on record: alone or in the blend, 40° C., 10^7 to 10^8 CFU/mL. As to the method: (§1) The synergism of the biocides combination of the present invention was determined using the method described by Kull, F. C, et al. in Applied Microbiology 9:538-541 (1961).
Inside an anaerobic chamber (Bactron anaerobic chamber), a deoxygenated sterile salt solution (3.1183 g of NaCl, 1.3082 mg of NaHCO3, 47.70 mg of KCl, 72.00 mg of CaCl2, 54.49 mg of MgSO4, 172.28 mg of Na2SO4, 43.92 mg of Na2CO3 in 1 L water, pH was adjusted to 7) was inoculated with Desulfovibrio longus ATCC 51456 to a final bacterial concentration of 10^7 to 10^8 CFU/mL. Aliquots of this cell suspension were then treated with DBMAL, THPS, and DBMAL/THPS blends, at selected active concentrations. After the treated cell suspensions were incubated at 40° C. for 24 hours, viable bacteria in each treated and untreated (control) cell suspensions were enumerated using a serial dilution method in Modified Baar's Medium (2.0 g of MgSO4, 5.7 g of Sodium citrate.2H2O, 1.0 g of CaSO4, 1.0 g of NH4Cl, 3.5 g of Sodium lactate, 1.0 g of Yeast extract, 0.5 g of K2HPO4, 0.1 g of Sodium Thioglycolate, 0.02 g of Fe(NH4)2(SO4)2, 20 g of NaCl in 1 L deionized water). The biocidal efficacy was determined by minimum tested biocide concentration for bacteria kill in the aliquots (MBC).
Table 1 summarizes the synergistic effect of each biocide and their blends, and the Synergy Index of each combination.

In experiment [2] the test system is Pseudomonas aeruginosa ATCC 10145 and Staphylococcus aureus ATCC 6538. The experiment can be described thus: MBC of DBMAL, THPS and blends against aerobic bacteria, 1 hr and 2 hr contact time. Format: cell-based. The note with it: alone or in the blend; for MBC (ppm active) DBMAL: DBMAL concentration; for MBC (ppm active) THPS: THPS concentration. As to the method: as §1
Sterile salt solution (0.2203 g of CaCl2, 0.1847 g of MgSO4, and 0.2033 g of NaHCO3 in 1 L water, adjust pH to 7.4) was inoculated with approximately 10^7 CFU/mL of Pseudomonas aeruginosa ATCC 10145 and Staphylococcus aureus ATCC 6538.
Aliquots of the cell suspension were then treated with DBMAL, THPS, and combinations of these actives at selected concentrations.
After incubating at 37° C. for 1 hr, viable bacteria in each treated and untreated (control) cell suspensions were enumerated using a serial dilution method in Tryptic Soy Broth. The biocidal efficacy was determined by minimum biocide concentration for bacteria kill in the aliquots (MBC). Synergy Index was then calculated. Table 2 summarizes the MBC of each biocide and their blends, and the Synergy Index of each combination.
The same test procedure in Example 2 was used to evaluate the biocidal efficacy of DBMAL, THPS and their blends against aerobic bacteria in a 2-hr contact assay. Table 3 summarizes the MBC of each biocide and their blends, and the Synergy Index of each combination.

As to `NC(=O)C(Br)(Br)C(N)=O` [1:0, 2,2-dibromomalonamide], the “MBC (ppm active) DBMAL” value in experiment [1] (DBMAL concentration) is 200.0 ppm active; in experiment [2] (2-hr contact assay) it was 77.8 ppm active; in experiment [2] (37° C., 1 hr contact time) it was greater than 100.0 ppm active.

Regarding “tetrakis(hydroxymethyl)phosphonium sulfate [0:1]”, the “MBC (ppm active) THPS” value in experiment [1] (THPS concentration) is listed as 50.0 ppm active; in experiment [2] (2-hr contact assay), 29.6 ppm active; in experiment [2] (37° C., 1 hr contact time), 100.0 ppm active.
